US9682931B2, “Aryloyl(oxy or amino)pentafluorosulfanylbenzene compound, pharmaceutically acceptable salt thereof, and prodrugs thereof” (UBE INDUSTRIES, LTD., priority 2013, dated 2017)
Converted amounts (≈) assume the structure as drawn.

Key:
Assay type in all cases: cell-based
MCF-7 (breast cancer) = experiment: Evaluation of anticancer action, cell proliferation inhibition (WST-8), MCF-7; details: Homo sapiens, MCF7, MCF-7, about 72 hours
Excerpt: (§1) The cell proliferation inhibitory effects of a test substance (Compound 3) on various types of cancer cells were examined.
(§2) 1. Measuring Reagent and Analysis Software
(§3) WST-8 Kit (Cat. No. 260-96165 or 260-96162; manufactured by Kishida Chemical Co., Ltd.) for counting cell number
(§4) Software for graph making and measurement of GI50 value: XLfit 5.2 (ID Business Solutions Ltd.)
(§5) 2. Cells and Culture Conditions
(§6) Five types of cells and medium (the following Table) were used. The cells were obtained from the Research Resource Bank of the Human Sciences Foundation.
(§7) On the day when a sample was to be added, the sample was weighed and a medium for each type of cells was added so as to be 500 μg/mL. Sonication was performed while warming at 37° C. for 60 minutes to be dissolved. Then, filtration was performed by a 0.22 m-filter. The 500 μg/mL-solution was diluted with the medium for each type of cells to prepare 200 μg/mL, 60 μg/mL, 20 μg/mL, 6 μg/mL, 2 μg/mL, 0.6 μg/mL and 0.2 μg/mL solutions, which were specified as two-fold concentration test solutions (the final concentrations of the test substance were 250 µg/mL, 100 μg/mL, 30 μg/mL, 10 μg/mL, 3 μg/mL, 1 μg/mL, 0.3 μg/mL, […], respectively). […]
(§8) (8) Absorbance values at 450 nm and 650 nm were measured to calculate O.D. 450 and O.D. 650. […]
(§9) ODdrug-exposed wells: absorbance of a well containing a sample […]

MKN1 (stomach cancer) = experiment: Evaluation of anticancer action, cell proliferation inhibition (WST-8), MKN1; details: Homo sapiens, MKN-1, MKN1, about 72 hours
Excerpt: as §1, §2, §3, §4, §5, §6, §7, §8, §9

[1] = system: Streptococcus mutans NBRC13955; experiment: Antimicrobial test on oral bacteria, bactericidal effect test; details: for bactericidal action on Streptococcus mutans cells: one minute
Experimental: Antimicrobial Test on Oral Bacteria
1. Antimicrobial Action on Streptococcus mutans
The antimicrobial effect of two types of test substances (Compound 3 and Compound 7) on Streptococcus mutans was evaluated.
1) Preparation of Test Microbe
A microbe strain (Streptococcus mutans NBRC13955) cryopreserved was cultured in TSA medium at 36±1° C. for 18 to 24 hours. The cultured microbial cells were transferred to a fresh TSA medium and cultured at 36±1° C. for 18 to 24 hours. The grown colonies were scraped out and suspended in sterile ion-exchange water to prepare a solution having about 10^7 CFU/mL, which was used as a test microbe solution.
2) Preparation of Test Solution […]
3) Bactericidal Effect Test
From individual test solutions previously kept at 25±2° C., an aliquot (10 mL) was dispensed to centrifuge tubes of 50 mL in volume. To each of the centrifuge tubes, the test microbe solution (0.1 mL) was inoculated, mixed and allowed to react. After a predetermined reaction time, the resultant test solution (1 mL) was taken out. To this, 9 mL of a deactivator (SCDLP medium (manufactured by Eiken Chemical Co., Ltd.), which was confirmed as effective deactivator), was added to inactivate the bactericidal component of the test solution. The number of microbial cells in the resultant sample solution was determined. The solution obtained by carrying out the same procedure except that a sterile physiological saline was used in place of the test solution, was used as a control.
4) Determination of the Number of Microbial Cells
Using the sample solution as a stock solution, serial dilution was performed with a sterile physiological saline to obtain 10-fold serial dilutions. 1 mL of the sample solution or each of the dilutions was aseptically transferred to a petri dish, mixed with TSA medium (20 mL), solidified and cultured at 36±2° C. for 48 hours. After the culture, colonies grown on the medium were counted to obtain the number of test microbe cells per test solution (1 mL) (lower limit of quantification: 10 CFU/test solution (1 mL)).

Row | Compound | GI50 (MCF-7 (breast cancer)) | GI50 (MKN1 (stomach cancer)) | number of the cells reduced (fraction) ([1]; 0.01 w/v %, 5 minutes) | number of test microbe cells ([1]; 0.01 w/v %, working time 1 min) | number of test microbe cells ([1]; 0.01 w/v %, working time 5 min) | bactericidal action on Streptococcus mutans cells ([1]; 0.05 w/v %) | number of test microbe cells ([1]; 0.05 w/v %, working time 1 min) | number of test microbe cells ([1]; 0.05 w/v %, working time 5 min) | number of test microbe cells ([1]; 0.001 w/v %, working time 1 min) | number of test microbe cells ([1]; 0.001 w/v %, working time 5 min) | bactericidal action on Streptococcus mutans cells ([1]; 0.005 w/v %) | number of test microbe cells ([1]; 0.005 w/v %, working time 1 min) | number of test microbe cells ([1]; 0.005 w/v %, working time 5 min)
1 | O=C(Nc1ccc(S(F)(F)(F)(F)F)cc1)c1cc(O)c(O)c(O)c1 [Compound 3, 4-(3,4,5-trihydroxybenzoylamino)pentafluorosulfanylbenzene] | 13.6 µg/mL (≈ 36.6 µM) | 5.1 µg/mL (≈ 13.7 µM) | 1/10 | 380,000 CFU/test solution (1 mL) | 34,000 CFU/test solution (1 mL) | almost completely killed | <10 CFU/test solution (1 mL) | <10 CFU/test solution (1 mL) |  |  |  |  | 
2 | O=C(Oc1ccc(S(F)(F)(F)(F)F)cc1)c1cc(O)c(O)c(O)c1 [Compound 7, 4-(3,4,5-trihydroxybenzoyloxy)pentafluorosulfanylbenzene] |  |  |  |  |  |  |  |  | 460,000 CFU/test solution (1 mL) | 280,000 CFU/test solution (1 mL) | almost completely killed | <10 CFU/test solution (1 mL) | <10 CFU/test solution (1 mL)
